In brackets after ≈: the same amount, converted by molar mass. Each block holds one molecule with its values, some of them ahead of it.
What was measured:
[1] = tested on: glycoprotein IIb-IIIa dependent platelet aggregation; assay: ADP-induced platelet aggregation; assay type: cell-based, human; conditions: specificity control
Description: To address the possibility of a nonspecific effect of LNF III on cell-cell interaction involving platelets, the effect of LNF III on ADP-induced platelet aggregation was examined.

[2] = tested on: adherence of activated platelets to neutrophils (PADGEM-mediated); assay: Phase-contrast cell adhesion assay: thrombin-activated platelets with neutrophils; assay type: cell-based, human; conditions: LNF isomers, FIG. 6
Method: Platelets were isolated by gel filtration from fresh anticoagulated blood obtained from normal human donors (Hsu-Lin et al., J. Biol. Chem., 259: 9121-9126 (1984)). Activated platelets were prepared by incubating cells without stirring for 20 minutes at 22° C. with thrombin at a final concentration of 0.25 U/ml. Fresh platelets were used in cell adhesion assays within 30 minutes of preparation.
Neutrophils were prepared by the method of English and Anderson (J. Immunol. Method, 5: 249-252 (1974)). The neutrophil preparations were greater than 95% pure by light microscopy. Monocytes were prepared by washing the mono-nuclear leukocyte fraction twice with human serum-5 mM EDTA and incubating the cells in RPMI 1640--10% fetal calf serum in sterile […] dishes for 2 hours at 37° C. The dishes were washed three times with PBS at 37° C. to remove nonadherent cells. PBS at 0° C. was added, and the cells were incubated at 4° C. for 1 hour. Adherent cells were gently detached with a rubber policeman, washed in PBS, and resuspended in RPMI 1640--1% fetal calf serum. Lymphocytes were obtained by washing the nonadherent cells with PBS and resuspending these cells in RPMI 1640--1% fetal calf serum. The purity of these preparations was established to be greater than 90% by light microscopy using Wright esterase and nonspecific esterase stains.
Twenty microliters of platelet suspension (2×10^8 /ml) was mixed with 20 μl of cell suspension (2×10^6 /ml) and incubated for 20 minutes at 22° C. in a microfuge tube. An aliquot of the cell suspension was then in a Neubauer chamber and evaluated by light microscropy using an Olympus model BH-2 microscope. Three samples from each assay were evaluated by counting 200 cells and scoring the percentage of cells with two or more adherent platelets (Jungi et al., Blood 67: 629-636 (1986)). Antibody inhibition studies were performed by preincubating cells (20 μl; 3×10^6 /ml) with 20 μl of antibody solution for 20 minutes at 22° C. Subsequently, 20 μl of platelet suspension was added, and the mixture was incubated for 20 minutes at 22° C. Samples were analyzed as above.
To identify the PADGEM recognition site on leukocytes that mediates the binding of activated platelets, monoclonal antibodies directed at various antigens on the surface of monocytes and neutrophils were tested for their ability to inhibit the interaction of these cells with activated platelets, using the phase-contrast cell adhesion assay described in Example 2 (FIG. 1 and FIG. 2). The antibodies were raised against various leukocytes and myeloid cell lines and are directed at leukocyte antigens. […] The percentage of cells displaying two or more adherent platelets was determined as described in Example 2.

cell viability = assay: Cell viability by trypan blue exclusion; assay type: cell-based; conditions: trypan blue exclusion method
[3] = tested on: binding of HL60 cells to COS/PADGEM cells; assay: COS cell-PADGEM adhesion assay with labelled HL60 cells; assay type: cell-based, human
Method: COS cells (1×10^5) were transfected with 40 μg of the resulting PADGEM expression vector by calcium phosphate precipitation. Coverslips (12×12 mm) were added to each culture. After 48 hours of growth in DMEM--10% fetal calf serum, the COS cells were confluent.
HL60 cells (1×10^7), maintained in culture, were washed and resuspended in 0.5 ml of serum-free RPMI 1640. The cells were labeled with 270 μCi of ^111 In oxine (Callow et al., Arch. Surg., 117: 1447-1455 (1982)) and 10 μg of bis-carboxyethyl-carboxyfluorescein (Kolber et al., J. Immunol. Meth., 108: 255-264 (1988)) by incubation at 37° C. for 30 minutes. After washing with RPMI 1640--1% bovine serum albumin, the cells (1×10^6) were incubated with the coverslips containing confluent COS cell transfectants, in the presence or absence of LNF isomers, for 20 minutes at 37° C. The coverslips were washed with RPMI 1640, and duplicate coverslips were assayed for ^111 In activity. Alternatively, samples were evaluated for HL60 cell adherence by fluorescence and phase-contrast microscopy using a Zeiss Axioscope microscope in a blind assay. Inhibition of the binding of COS/PADGEM cells to U937 cells by the antibody 80H5 was performed in experiments identical to the procedure described above.
The results of a COS cell-PADGEM adhesion assay, in which the binding of ^111 In and bis-carboxyethyl-carboxyfluorescein-lableled HL60 cells to COS/PADGEM cells was monitored by assaying ^111 In activity (Example 2), are shown in FIG. 7. […] The inhibitory effect of LNF II was more apparent when the LNF to PADGEM ratio was high. […] It is possible that minor contamination of the LNF II preparation with LNF III can account for the inhibitory activity observed.
The inhibitory effects of LNF I, II, and III on the interaction of HL60 cells and COS/PADGEM was also studied morphologically in a blind assay. In these experiments, the binding of fluorescently labeled HL60 cells to COS/PADGEM cells was scored (Example 2).

Mel-14 = conditions: literature report; cited from earlier work

IC50 ([2]; Homo sapiens, read-out: half-maximal inhibition of the adherence of activated platelets to neutrophils): ~50 µg/mL (≈ 58.6 µM)
Structure (SMILES): CC(=O)N[C@H]1[C@H](O[C@H]2[C@@H](O)[C@@H](CO)O[C@@H](O[C@H]3[C@H](O)[C@@H](O)C(O)O[C@@H]3CO)[C@@H]2O)O[C@H](CO)[C@@H](O[C@@H]2O[C@H](CO)[C@H](O)[C@H](O)[C@H]2O)[C@@H]1O[C@@H]1O[C@@H](C)[C@@H](O)[C@@H](O)[C@@H]1O (stereo partly shown) [LNF III, Galβ1-4(Fucα1-3)GlcNAcβ1-3Galβ1-4Glc]
effect on ADP-induced platelet aggregation [1]: equivalent in the presence or absence of LNF III
inhibitory activity on adherence of activated platelets to neutrophils ([2]; direct cell adhesion assay): effective inhibitor
cell viability (cell viability): did not alter cell viability
inhibition of binding of radiolabeled HL60 cells to COS/PADGEM cells ([3]; 111In activity, FIG. 7): significantly inhibited
inhibition of binding of fluorescently labeled HL60 cells to COS/PADGEM cells ([3]; scored morphologically in a blind assay): significant inhibitory activity

Structure (SMILES): O=P(O)(O)OC[C@H]1OC(O)[C@@H](O)[C@@H](O)[C@@H]1O (stereo partly shown) [mannose 6-phosphate]
inhibition of Mel-14-mediated lymphocyte-endothelial cell interaction (Mel-14): inhibit
